Data published in patent publication US11725036B2, “Modified lipidated relaxin B chain peptides and their therapeutic use” (Sanofi, priority 2018, dated 2023).
Starred links: 1 amine or outer side, 2 acyl side, 3 side chain; linkers in the order of their positions; H or OH if unused. Non-standard residues stand in square brackets, D forms with d. Residues, ends and D or L forms follow the SMILES beside them. Groups on a side chain read outwards from the residue. *: point of attachment. X10 = CCCCCCCCCCCCCC(=O)N[C@@H](CCC(=O)N[C@@H](CCC(=O)N[C@@H](CCC(=O)N[C@@H](CCC(=O)NCCCOCCOCCOCCCNC(=O)CCC(=O)NCCCOCCOCCOCCCNC(=O)CCC(=O)NCCCOCCOCCOCCCN*)C(=O)O)C(=O)O)C(=O)O)C(=O)O; X1 = CCCCCCCCCCCCCCCC(=O)N[C@@H](CCC(=O)N[C@@H](CCC(=O)N[C@@H](CCC(=O)NCCCOCCOCCOCCCNC(=O)CCC(=O)NCCCOCCOCCOCCCNC(=O)CCC(=O)NCCCOCCOCCOCCCN*)C(=O)O)C(=O)O)C(=O)O; Trp(5-F) = N[C@@H](Cc1c[nH]c2ccc(F)cc12)C(=O)O; Suc = O=C(CCC(=O)[*:2])[*:1]; αMeK = C[C@](N)(CCCCN)C(=O)O; hLys = NCCCCC[C@H](N)C(=O)O; Aib = CC(C)(N)C(=O)O

Biological target: T1, RXFP1 (Homo sapiens, UniProt Q9HBX9)
T1 construct: OVCAR5 cells expressing endogenous RXFP1; endogenous in cells; host or cells: OVCAR5
T1 sequence (Q9HBX9 1-757): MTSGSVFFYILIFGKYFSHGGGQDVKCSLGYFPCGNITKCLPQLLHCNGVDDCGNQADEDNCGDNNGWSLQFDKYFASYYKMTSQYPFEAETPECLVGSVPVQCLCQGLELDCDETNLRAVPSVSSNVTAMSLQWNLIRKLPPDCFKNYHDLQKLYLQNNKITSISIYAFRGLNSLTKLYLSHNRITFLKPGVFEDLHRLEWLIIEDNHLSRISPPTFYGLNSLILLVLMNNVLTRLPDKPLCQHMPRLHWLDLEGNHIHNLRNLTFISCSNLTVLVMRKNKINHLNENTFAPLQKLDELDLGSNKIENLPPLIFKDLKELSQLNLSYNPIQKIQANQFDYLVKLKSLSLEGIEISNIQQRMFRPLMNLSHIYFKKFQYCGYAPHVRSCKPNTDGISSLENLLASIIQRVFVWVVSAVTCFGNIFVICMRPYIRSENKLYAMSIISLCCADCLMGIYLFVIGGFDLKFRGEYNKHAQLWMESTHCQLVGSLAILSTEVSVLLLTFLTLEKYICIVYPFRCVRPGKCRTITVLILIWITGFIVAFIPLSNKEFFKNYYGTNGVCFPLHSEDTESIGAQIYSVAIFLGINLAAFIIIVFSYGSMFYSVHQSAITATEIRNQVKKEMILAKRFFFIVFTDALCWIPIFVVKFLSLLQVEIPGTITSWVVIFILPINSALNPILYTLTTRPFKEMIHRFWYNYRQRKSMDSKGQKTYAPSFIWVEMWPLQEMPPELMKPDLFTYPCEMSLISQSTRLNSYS
Assay: OVCAR5 cAMP assay (HTRF)
Assay type: cell-based
Conditions: for EC50: OVCAR 5 cells expressing endogenous RXFP1, cAMP readout; for Emax: OVCAR 5 cells, maximal cAMP relative to H2-relaxin
How it was run: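 Peptide agonism measured as intracellular cAMP (HTRF) after 30 min at 37° C in serum-free medium, following 40 min 1 mM IBMX preincubation of OVCAR5 cells. Nonlinear regression gave EC50; Emax % = 100 × compound maximal cAMP / H2-relaxin maximal cAMP.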

EC50 [nM] | Emax [%] | Structure (SMILES)
1.5 | 99 | CCCCCCCCCCCCCCCC(=O)N[C@@H](CCC(=O)N[C@@H](CCC(=O)N[C@@H](CCC(=O)NCCCOCCOCCOCCCNC(=O)CCC(=O)NCCCOCCOCCOCCCNC(=O)CCC(=O)NCCCOCCOCCOCCCNC(=O)CCC(=O)NCCCC[C@H](NC(=O)CNC(=O)[C@H](CCC(=O)O)NC(=O)C(C)(C)NC(=O)C(C)(C)NC(=O)[C@@H](NC(=O)[C@H](CCCCNC(C)=O)NC(=O)[C@H](C)NC(=O)[C@H](CCCNC(=N)N)NC(=O)[C@@H](NC(=O)[C@H](CCCCN)NC(=O)[C@H](CCC(=O)O)NC(=O)[C@H](CCCNC(=N)N)NC(=O)CNC(=O)[C@H](CCC(=O)O)NC(=O)[C@H](CC(C)C)NC(C)=O)C(C)C)[C@@H](C)CC)C(=O)N[C@@H](CO)C(=O)N[C@H](C(=O)N[C@@H](Cc1c[nH]c2ccccc12)C(=O)N[C@@H](CO)C(=O)NC(C)(C)C(=O)N[C@@H](CCCNC(=N)N)C(=O)N[C@@H](CCCCN)C(=O)N[C@@H](CCCCNC(C)=O)C(N)=O)[C@@H](C)O)C(=O)O)C(=O)O)C(=O)O [compound 1] (Ac-LEGREKVRAK(Ac)I[Aib][Aib]EGK([Suc-X1])STWS[Aib]RKK(Ac)-NH2)
0.64 | 95 | CCCCCCCCCCCCCCCC(=O)N[C@@H](CCC(=O)N[C@@H](CCC(=O)N[C@@H](CCC(=O)NCCCOCCOCCOCCCNC(=O)CCC(=O)NCCCOCCOCCOCCCNC(=O)CCC(=O)NCCCOCCOCCOCCCNC(=O)CCC(=O)NCCCC[C@H](NC(=O)CNC(=O)[C@H](CCC(=O)O)NC(=O)C(C)(C)NC(=O)C(C)(C)NC(=O)[C@@H](NC(=O)[C@H](CCCCN)NC(=O)[C@H](C)NC(=O)[C@H](CCCNC(=N)N)NC(=O)[C@@H](NC(=O)[C@H](CCCCN)NC(=O)[C@H](CCC(=O)O)NC(=O)[C@H](CCCNC(=N)N)NC(=O)CNC(=O)[C@H](CCC(=O)O)NC(=O)[C@H](CC(C)C)NC(C)=O)C(C)C)[C@@H](C)CC)C(=O)N[C@@H](CO)C(=O)N[C@H](C(=O)N[C@@H](Cc1ccccc1)C(=O)N[C@@H](CO)C(=O)N[C@@](C)(CCCCN)C(=O)N[C@@H](CCCNC(=N)N)C(=O)N[C@@H](C)C(=O)N[C@@H](CCCCNC(C)=O)C(N)=O)[C@@H](C)O)C(=O)O)C(=O)O)C(=O)O [compound 47] (Ac-LEGREKVRAKI[Aib][Aib]EGK([Suc-X1])STFS[αMeK]RAK(Ac)-NH2)
1.8 | 98 | CCCCCCCCCCCCCCCC(=O)N[C@@H](CCC(=O)N[C@@H](CCC(=O)N[C@@H](CCC(=O)NCCCOCCOCCOCCCNC(=O)CCC(=O)NCCCOCCOCCOCCCNC(=O)CCC(=O)NCCCOCCOCCOCCCNC(=O)CCC(=O)NCCCC[C@H](NC(=O)CNC(=O)[C@H](CCC(=O)O)NC(=O)C(C)(C)NC(=O)C(C)(C)NC(=O)[C@@H](NC(=O)[C@H](CCCCNC(C)=O)NC(=O)[C@H](C)NC(=O)[C@H](CCCNC(=N)N)NC(=O)[C@@H](NC(=O)[C@H](CCCNC(=N)N)NC(=O)[C@H](CCC(=O)O)NC(=O)[C@H](CCCNC(=N)N)NC(=O)CNC(=O)[C@H](CCC(=O)O)NC(=O)[C@H](CC(C)C)NC(C)=O)C(C)C)[C@@H](C)CC)C(=O)N[C@@H](CO)C(=O)N[C@H](C(=O)N[C@@H](Cc1ccccc1)C(=O)N[C@@H](CO)C(=O)N[C@@](C)(CCCCN)C(=O)N[C@@H](CCCNC(=N)N)C(=O)N[C@@H](C)C(=O)N[C@@H](CCCCNC(C)=O)C(N)=O)[C@@H](C)O)C(=O)O)C(=O)O)C(=O)O [compound 27] (Ac-LEGRERVRAK(Ac)I[Aib][Aib]EGK([Suc-X1])STFS[αMeK]RAK(Ac)-NH2)
0.44 | 98 | CCCCCCCCCCCCCCCC(=O)N[C@@H](CCC(=O)N[C@@H](CCC(=O)N[C@@H](CCC(=O)NCCCOCCOCCOCCCNC(=O)CCC(=O)NCCCOCCOCCOCCCNC(=O)CCC(=O)NCCCOCCOCCOCCCNC(=O)CCC(=O)NCCCC[C@H](NC(=O)CNC(=O)[C@H](CCC(=O)O)NC(=O)C(C)(C)NC(=O)C(C)(C)NC(=O)[C@@H](NC(=O)[C@H](CCCCNC(C)=O)NC(=O)[C@H](C)NC(=O)[C@H](CCCNC(=N)N)NC(=O)[C@@H](NC(=O)[C@H](CCCCN)NC(=O)[C@H](CCC(=O)O)NC(=O)[C@H](CCCNC(=N)N)NC(=O)CNC(=O)[C@H](CCC(=O)O)NC(=O)[C@H](CC(C)C)NC(C)=O)C(C)C)[C@@H](C)CC)C(=O)N[C@@H](CO)C(=O)N[C@H](C(=O)N[C@@H](Cc1c[nH]c2ccccc12)C(=O)N[C@@H](CO)C(=O)N[C@@H](CCCCCN)C(=O)N[C@@H](CCCNC(=N)N)C(=O)N[C@@H](C)C(=O)N[C@@H](CCCCNC(C)=O)C(N)=O)[C@@H](C)O)C(=O)O)C(=O)O)C(=O)O [compound 57] (Ac-LEGREKVRAK(Ac)I[Aib][Aib]EGK([Suc-X1])STWS[hLys]RAK(Ac)-NH2)

The next lines start with the molecule.

Structure (SMILES) | EC50 [nM] | Emax [%]
CCCCCCCCCCCCCCCC(=O)N[C@@H](CCC(=O)N[C@@H](CCC(=O)N[C@@H](CCC(=O)NCCCOCCOCCOCCCNC(=O)CCC(=O)NCCCOCCOCCOCCCNC(=O)CCC(=O)NCCCOCCOCCOCCCNC(=O)CCC(=O)NCCCC[C@H](NC(=O)CNC(=O)[C@H](CCC(=O)O)NC(=O)C(C)(C)NC(=O)C(C)(C)NC(=O)[C@@H](NC(=O)[C@H](CCCCNC(C)=O)NC(=O)[C@H](C)NC(=O)[C@H](CCCNC(=N)N)NC(=O)[C@@H](NC(=O)[C@H](Cc1ccccc1)NC(=O)[C@H](CCC(=O)O)NC(=O)[C@H](CCCNC(=N)N)NC(=O)CNC(=O)[C@H](CCC(=O)O)NC(=O)[C@H](CC(C)C)NC(C)=O)C(C)C)[C@@H](C)CC)C(=O)N[C@@H](CO)C(=O)N[C@H](C(=O)N[C@@H](Cc1c[nH]c2ccccc12)C(=O)N[C@@H](CO)C(=O)NC(C)(C)C(=O)N[C@@H](CCCNC(=N)N)C(=O)N[C@@H](CCCNC(=N)N)C(=O)N[C@@H](CCCCNC(C)=O)C(N)=O)[C@@H](C)O)C(=O)O)C(=O)O)C(=O)O [compound 39] (Ac-LEGREFVRAK(Ac)I[Aib][Aib]EGK([Suc-X1])STWS[Aib]RRK(Ac)-NH2) | 8.7 | 93
CCCCCCCCCCCCCC(=O)N[C@@H](CCC(=O)N[C@@H](CCC(=O)N[C@@H](CCC(=O)N[C@@H](CCC(=O)NCCCOCCOCCOCCCNC(=O)CCC(=O)NCCCOCCOCCOCCCNC(=O)CCC(=O)NCCCOCCOCCOCCCNC(=O)CCC(=O)NCCCC[C@H](NC(=O)CNC(=O)[C@H](CCC(=O)O)NC(=O)C(C)(C)NC(=O)C(C)(C)NC(=O)[C@@H](NC(=O)[C@H](CCCCNC(C)=O)NC(=O)[C@H](C)NC(=O)[C@H](CCCNC(=N)N)NC(=O)[C@@H](NC(=O)[C@H](CCCCN)NC(=O)[C@H](CCC(=O)O)NC(=O)[C@H](CCCNC(=N)N)NC(=O)CNC(=O)[C@H](CCC(=O)O)NC(=O)[C@H](CC(C)C)NC(C)=O)C(C)C)[C@@H](C)CC)C(=O)N[C@@H](CO)C(=O)N[C@H](C(=O)N[C@@H](Cc1ccccc1)C(=O)N[C@@H](CO)C(=O)N[C@@](C)(CCCCN)C(=O)N[C@@H](CCCNC(=N)N)C(=O)N[C@@H](C)C(=O)N[C@@H](CCCCN)C(N)=O)[C@@H](C)O)C(=O)O)C(=O)O)C(=O)O)C(=O)O [compound 97] (Ac-LEGREKVRAK(Ac)I[Aib][Aib]EGK([Suc-X10])STFS[αMeK]RAK-NH2) | 0.29 | 98
CCCCCCCCCCCCCCCC(=O)N[C@@H](CCC(=O)N[C@@H](CCC(=O)N[C@@H](CCC(=O)NCCCOCCOCCOCCCNC(=O)CCC(=O)NCCCOCCOCCOCCCNC(=O)CCC(=O)NCCCOCCOCCOCCCNC(=O)CCC(=O)NCCCC[C@H](NC(=O)CNC(=O)[C@H](CCC(=O)O)NC(=O)C(C)(C)NC(=O)C(C)(C)NC(=O)[C@@H](NC(=O)[C@H](CCCCNC(C)=O)NC(=O)[C@H](C)NC(=O)[C@H](CCCNC(=N)N)NC(=O)[C@@H](NC(=O)[C@H](CCCNC(=N)N)NC(=O)[C@H](CCC(=O)O)NC(=O)[C@H](CCCNC(=N)N)NC(=O)CNC(=O)[C@H](CCC(=O)O)NC(=O)[C@H](CC(C)C)NC(C)=O)C(C)C)[C@@H](C)CC)C(=O)N[C@@H](CO)C(=O)N[C@H](C(=O)N[C@@H](Cc1c[nH]c2ccc(F)cc12)C(=O)N[C@@H](CO)C(=O)NC(C)(C)C(=O)N[C@@H](CCCNC(=N)N)C(=O)N[C@@H](CCCNC(=N)N)C(=O)N[C@@H](CCCCNC(C)=O)C(N)=O)[C@@H](C)O)C(=O)O)C(=O)O)C(=O)O [compound 92] (Ac-LEGRERVRAK(Ac)I[Aib][Aib]EGK([Suc-X1])ST[Trp(5-F)]S[Aib]RRK(Ac)-NH2) | 0.1 | 99
